Experimental data from US20050208037A1, “Thioredoxin increases redox-cycling of anticancer agents thereby sensitizes cancer cells to apoptosis” (Board of Regents, The University of Texas System, priority 2003, published 2005).
Counter-ions that a name gives are not always drawn.

How the values were obtained:
[1] = test system: Trx9 cells (MCF-7 clones expressing thioredoxin); assay: Superoxide production in cell lysate by SOD-inhibitable reduction of ferricytochrome c; type: biochemical, human; conditions: for inhibition of SOD-inhibitable rate of O2— generation: inhibitor 50 μM, then 10 μM doxorubicin
Method: Determination of superoxide production by reduction of ferricytochrome c. Superoxide production was measured as superoxide dismutase (SOD) inhibitable reduction of ferricytochrome c (Azzi et al. 1975). Cells were sonicated in potassium phosphate buffer (0.05M, pH 7.8 plus 1 mM EDTA), centrifuged and the supernatant was used for the assay. To determine the superoxide generation in the cell lysate, the supernatant was incubated with 10 μM drug and 10 μM cytochrome c, with or without 1U SOD to determine SOD inhibitable rate. The specificity of thioredoxin mediated superoxide generation in the supernatant was detected by pre-incubation of cell lysates with anti-human thioredoxin antibody (American Diagnostica, Greenwich, Conn.) for 15 min. All reactions were performed in triplicate. The reduction of ferricytochrome c was measured both in kinetic and end point mode with path check on for 1 hr duration at a wavelength of 550 nm using a Spectramax 190 plate reader (Molecular Devices). Total protein was quantified using Bradford protein assay (Biorad) and the superoxide generation was determined per milligram of protein in the extracts.

p53 in Trx9 cells [2] = assay: Electrophoretic mobility shift assay of p53 DNA binding; type: cell-based, human; conditions: daunomycin treated Trx9 cells, 4 hr
Method: Nuclear Extract preparation. Nuclear extract was prepared as described previously (Das, 2001). […] The extracts were then centrifuged at 14,000 rpm for 25 min and the supernatant was saved as nuclear extract in −70° C. for further experiments. Protein was quantified using Bradford protein assay (Biorad).
Electrophoretic Mobility shift assay (EMSA). For the EMSA the p53 consensus oligonucleotide was obtained from Genosys 5′-[…]-3′ (SEQ ID NO:9) and end labeled using T4 Poly nucleotide kinase (New England Biolabs, Beverly, Mass.) and [γ-^32P] ATP (Perkin Elmer, Boston, Mass.) in 10× kinase buffer supplied with the enzyme. […] The nuclear protein was separated by electrophoresis using 4% native polyacrylamide gel and 0.25× of TBE (Tris-Borate-EDTA) as running buffer. The gels were dried and exposed to Kodax Biomax X-ray film overnight.

p53 in Trx9 cells [3] = assay: Western blotting of p53 and phospho-p53 (ser-15); type: cell-based, human; conditions: daunomycin treated Trx9 cells, 4 hr
Source text: Western blotting. Equal amounts of protein were resolved on 10% SDS-polyacrylamide gel electrophoresis, and transferred to nitrocellulose membrane (Hybond-ECL, Amersham Pharmacia Biotech) immunoblotted with anti-p53 or anti-p53 phospho ser-15 (Cell Signaling Technology, Beverly, Mass.) and visualized using Lumiglo system with antirabbit conjugated HRP. For cytochrome c determination the cytosolic protein was resolved on 15% SDS-PAGE and immunoblotted using anti-cytochrome c (BD Pharmingen, San Diego, Calif.) and visualized using the ECL system (Amersham Pharmacia Biotech, Piscataway, N.J.) and anti-mouse IgG conjugated HRP (Santa Cruz Biotech, California).

A549 cells = assay: ROS detection by DCF-DA fluorescence; type: cell-based, human; conditions: daunomycin only (1 μM)
Method: In situ detection of superoxide by fluorescent probe DiCarboxyFluorescein-DiAcetate (DCF-DA). […] Cells were pre-incubated with 20 μM DCF-DA (Sigma, St. Louis, Mo.) in 20 mM Hepes in Phosphate Buffered Saline (PBS) containing bovine serum albumin (BSA, 5 mg/ml) at 37° C. for 30 min followed by washing with PBS buffer, and the drug was added and observed for 10-15 min in a Nikon laser confocal microscope using laser beam wavelength 488 nm analyzed by Ultraview software (Perkin-Elmer).

[4] = test system: Trx9 cells (MCF-7 clones expressing thioredoxin); assay: TUNEL assay; type: cell-based, human; conditions: Trx9 compared to vector cells; daunomycin 1 μM, 16 h
Source text: TUNEL assay. Apoptotic cells were detected using In Situ Cell Death detection, POD kit (Roche Molecular Biochemicals, Indianapolis, Ind.). Apoptotic DNA strand breaks were identified by labeling 3′-OH termini with fluorescein-dUTP using Terminal deoxy Transferase as per manufacturer's protocol. For this assay cells were allowed to adhere overnight in chambered glass slides (Nunc) to a final density of 25,000 cells per well. Followed by treatment with the appropriate concentration of drugs the media was removed and washed twice with PBS containing 1% BSA and the cells fixed in 4% paraformaldehyde for 30 min and washed with PBS containing 1% BSA. The cells were then permeabilized with 0.1% Triton X-100 in 0.1% sodium citrate for 2 min on ice and washed twice with PBS containing 1% BSA. The labeling reaction was performed using FITC labeled dUTP along with other nucleotides by terminal deoxynucleotidyl transferase for 60 mins in dark at 37° C. in humidified chamber. The cells were washed with PBS-1% BSA, mounted onto a slide, and the incorporated fluorescein-dUTP was analyzed using Nikon laser confocal microscope.

[5] = test system: Trx9 cells (MCF-7 clones expressing thioredoxin); assay: Flow cytometry, apoptosis as sub-G1 peak (propidium iodide); type: cell-based, human; conditions: daunomycin 1 μM, 16 h
Method: (§1) Flow cytometry. […] The cells were washed again with PBS containing 1% FBS and resuspended in 500 μl of PBS followed by fixing in 7.5 ml of ice-cold ethanol 70% added dropwise while vortexing and stored in −20° C. overnight. After two washes with PBS containing 1% FBS and resuspended in same buffer and stained with Propidium Iodide 10 μg/ml (Sigma, St. Louis, Mo.) in the presence of RNase 250 μg/ml at 37° C. for 30 min in dark. Stained cells were analyzed using Epics Elite ESP Coulter, using argon laser at 488 nm wavelength. Flow cytometric results were analyzed and apoptosis was defined as ‘sub G1’ peak (Gutierrez, 2000) using Multicycle software.

[6] = test system: vector cells (vector-only MCF-7); assay: as above; type: cell-based, human; conditions: daunomycin 1 μM, 16 h
Method: as §1

[7] = molecular target: T1, E. coli thioredoxin reductase-thioredoxin system (Escherichia coli, UniProt P0A9P4); assay: Superoxide detection by cytochrome c reduction assay with thioredoxin system; type: biochemical
T1 construct: purchased American Diagnostica Inc (thioredoxin reductase); Promega Inc (thioredoxin)
Method: Superoxide detection by cytochrome c reduction assay. Superoxide (O2—) generated in the process of redox-cycling was detected by SOD inhibitable rate of ferricytochrome c reduction (Das et al., 2000). The reaction mixture contained 0.05 M potassium phosphate buffer (pH 7.78), 1 mM EDTA, 10 μM cytochrome c and 200 μM NADPH. […] The rate of […] of cytochrome c was measured at 550 nm for 0-15 minutes using Shimadzu UV-1601PC in kinetic mode. Reaction blank contained potassium phosphate buffer, cytochrome c and NADPH with or without SOD, and controls included 0.35-0.7 μg TR and /or Trx in buffer. All reactions were performed in triplicate.

[8] = test system: Trx9 cells (MCF-7 clones expressing thioredoxin); assay: XTT cytotoxicity assay; type: cell-based, human; conditions: percent control of untreated cells
Method: (§2) XTT assay. Cytotoxicity was estimated using XTT based in vitro toxicology assay kit, (Sigma Chemical Co.). This assay is based on the metabolic capacity of viable cells; the mitochondrial dehydrogenases convert XTT yielding orange formazan crystal soluble in aqueous media that is estimated spectrophotmetrically at 450 nm and a reference wavelength at 690. The assay was performed 48 hr post treatment; cells were washed and XTT added in media free of serum and phenol red, incubated for 2-4 hr and analyzed in Spectramax 190 plate reader.

[9] = test system: vector cells (vector-only MCF-7); assay: XTT cytotoxicity assay; type: cell-based, human; conditions: percent control of untreated cells
Method: as §2

[10] = cited from earlier work
[11] = test system: Trx9 cells (MCF-7 clones expressing thioredoxin); assay: Cell proliferation assay by BrdU ELISA; type: cell-based, human; conditions: daunomycin 1 μM, 16 h
Method: (§3) Cell proliferation assay. Cell proliferation assay by BrdU ELISA kit was purchased from Roche Molecular Biochemicals (Indianapolis, Ind.). For this assay cells were seeded to a final density of 5000 per well in 96 well plates and allowed to attach overnight, […] BrdU for 4-6 hr, and detected using Tetramethylbenzedine as substrate with Anti-BrdU POD at 370 nm and reference wavelength 492 nm in Spectramax 190 plate reader.

[12] = test system: vector cells (vector-only MCF-7); assay: Cell proliferation assay by BrdU ELISA; type: cell-based, human; conditions: daunomycin 1 μM, 16 h
Method: as §3

[13] = test system: Trx9 cells (MCF-7 clones expressing thioredoxin); assay: Cytochrome c release (cytosolic extract, western blotting); type: cell-based, human; conditions: Trx9 compared to vector-only cells; daunomycin 1 μM, 16 h
Method: Preparation of cytosolic extract by sub cellular fractionation. Cytosolic preparation was done as described earlier (Yang et al., 1997). Briefly, cells were harvested by centrifugation (600×g) and washed once with ice cold PBS for 10 min at 4° C. The cell pellets were resuspended in five volumes of fractionation buffer (250 mM sucrose containing 20 mM HEPES-KOH, 10 mM KCl, 1.5 mM each of sodium-EDTA and sodium- EGTA, 1 mM MgCl2, 1 mM dithiothreitol, 0.1 mM PMSF and cocktail of protease inhibitors) and incubated on ice for 30 min. Cells were then homogenized using a dounce homogenizer with type B pestle and centrifuged twice at 800×g for 10 min at 4° C. The supernatant was centrifuged at 10,000×g for 15 min at 4° C., and the resulting supernatant was then transferred to fresh tube and centrifuged at 100,000×g […] for 1 hr at 4° C. The final supernatant obtained in this centrifugation was designated as cytosolic extract and was stored in −70° C. for further analysis.
Western blotting. Equal amounts of protein were resolved on 10% SDS-polyacrylamide gel electrophoresis, and transferred to nitrocellulose membrane (Hybond-ECL, Amersham Pharmacia Biotech) immunoblotted with anti-p53 or anti-p53 phospho ser-15 (Cell Signaling Technology, Beverly, Mass.) and visualized using Lumiglo system with antirabbit conjugated HRP. […]

[14] = test system: Trx9 cells (MCF-7 clones expressing thioredoxin); assay: Colony formation assay (clonogenic survival); type: cell-based, human; conditions: 0.1 μM daunomycin, end of 14 days
Method: (§4) Colony formation assay. For determination of clonogenic survival, the cells were seeded to a final density of 1×10^6 in 100 mm dishes, allowed to attach overnight, and the following day treated with the appropriate concentration of the drug for 48 hr. The cells were trypsinized, counted and seeded to final density of 25,000 viable cells in 100 mm dishes and allowed to grow for 14 days followed by washing and staining with crystal violet.

[15] = test system: vector cells (vector-only MCF-7); assay: Colony formation assay (clonogenic survival); type: cell-based, human; conditions: 0.1 μM daunomycin, end of 14 days
Method: as §4

T1 sequence (P0A9P4 2-321): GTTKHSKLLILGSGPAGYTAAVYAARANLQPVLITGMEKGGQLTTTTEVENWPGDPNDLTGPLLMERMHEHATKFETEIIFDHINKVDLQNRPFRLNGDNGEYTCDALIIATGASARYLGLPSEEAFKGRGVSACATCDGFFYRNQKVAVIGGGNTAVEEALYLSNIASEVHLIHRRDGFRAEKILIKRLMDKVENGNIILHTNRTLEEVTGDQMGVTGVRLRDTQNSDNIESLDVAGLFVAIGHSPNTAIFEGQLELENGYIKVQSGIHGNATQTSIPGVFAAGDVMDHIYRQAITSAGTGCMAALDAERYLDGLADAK

Structure (SMILES): Nn1nnc2ccccc21 [ABT, 1-Aminobenzotriazole]
- inhibition of SOD-inhibitable rate of O2— generation ([1]; Trx9 cells): 54%

Structure (SMILES): c1ccc2c(c1)[I+]c1ccccc1-2 [DPIC, dipheyleneiodonium]
- effect on p53 DNA binding (p53 in Trx9 cells [2]; DPIC 50 μM): abolished
- effect on generation of O2— ([1]; Trx9 cells, DPIC 25 or 50 μM pre-incubation, 10 μM doxorubicin): inhibited generation of O2—
- effect on p53 ser-15 phosphorylation (p53 in Trx9 cells [3]): abolished

Structure (SMILES): O=C(O)c1ccc(/C2=C3\C=CC(=N3)/C(c3ccc(C(=O)O)cc3)=c3/cc/c4[n]3[Mn]([Cl])[n]3c2ccc3/C(c2ccc(C(=O)O)cc2)=C2/C=CC(=N2)\C=4c2ccc(C(=O)O)cc2)cc1 [MnTBAP]
- reduction in p53 DNA binding activity (densitometric analysis) (p53 in Trx9 cells [2]): about 30%
- effect on p53 ser-15 phosphorylation (p53 in Trx9 cells [3]): no appreciable decrease

Structure (SMILES): Nc1ncnc2c1ncn2[C@@H]1O[C@H](COP(=O)(O)O)[C@@H](O)[C@H]1OP(=O)(O)O [PAMP, 2′-Phospho-5′-AMP]
- inhibition of SOD-inhibitable rate of O2— generation ([1]; Trx9 cells): 76%

Structure (SMILES): COc1cccc2c1C(=O)c1c(O)c3c(c(O)c1C2=O)C[C@@](O)(C(C)=O)C[C@@H]3O[C@H]1C[C@H](N)[C@H](O)[C@H](C)O1 [daunomycin, 5,12-Naphthacenedione, (8S-cis)-8-acetyl-10-[(3-amino-2,3,6-trideoxy-a-L-lyxo-hexanopyranosyl)oxy]-7,8,9,10-tetrahydro-6,8,11-trihydroxy-10-methoxy-, hydrochloride]
- ROS generation (DCF-DA) (A549 cells): ROS generation was increased
- TUNEL-positive cells [4]: higher number of TUNEL positive Trx9 cells
- percentage of apoptotic cells (sub-G1) [5]: 23%
- percentage of apoptotic cells (sub-G1) [6]: 6%
- levels of O2— generated ([7]; drug 10 μM with thioredoxin reductase alone): significantly higher levels of O2—
- SOD inhibitable rate of ferricytochrome c reduction ([7]; drug alone, 10 μM): did not show significant level
- percentage of cell death (XTT) [8]: 48%
- percentage of cell death (XTT) [9]: 16%
- secreted into the bile ([10]; in vivo): ~40%
- elimination half-life ([10]; intravenous): about 19 hr
- absorption ([10]; oral): poor
- level of BrdU incorporated [11]: 60%
- level of BrdU incorporated [12]: 76%
- cytochrome c release [13]: increased cytochrome c release
- clonogenic survival [14]: failed to propagate into colonies
- clonogenic survival [15]: able to propagate into several colonies
- O2— production ([1]; Trx9 compared to vector-transfected cells, 10 μM drug): significantly higher level of O2—

Structure (SMILES): COc1cccc2c1C(=O)c1c(O)c3c(c(O)c1C2=O)C[C@@](O)([C@H](C)O)C[C@@H]3O[C@H]1C[C@H](N)[C@H](O)[C@H](C)O1 [daunorubicinol]
- half-life of active metabolite ([10]; metabolite of daunorubicin): about 27 hr
